Laboratory results: patent US20210244028A1, “TREATMENT FOR REMOVING ECTOPARASITES FROM FISH” (priority 2018, published 2021)
“And” between values parts separate entries of the source, which are not always exact repeats. Equal values may be shown once. Read-outs that look alike come from different tables or passages of the source.

Experiments:
Salmon lice = experiment: Bath treatment of lice-infected Atlantic salmon, percent lice removed (Example 7); assay type: in vivo; settings: 0.1 mg/l, 30 minutes, duplicate, 3 fish per test
Method: To determine the concentration- and time-dependence of imidacloprid treatment in vivo, Atlantic salmon (average of 320.9 g) were challenged with imidacloprid in seawater ([…] salinity) at 12° C. The water level in the tank was lowered and aeration was employed during administration of the active. The salmon louse copepodid culture was counted and adjusted to obtain a target level of around 40 copepodids per fish in the challenge tank at each challenge time point.
Salmon lice on the fish were counted using standard methods. Only lice on the fish's outer surface, not including gills and oral/buccal cavities, were investigated.
Numbers of dissociated lice in tank water or attached to the tank walls were recorded. Lice in the tank water were collected and assessed for ability to attach by suction to a smooth plastic surface immediately after treatment and again after 30-60 minutes (to assess possible revival). […]
To terminate the treatment, the inner compartment with treated fish was lifted to the surface and drained, then fish were transferred directly and without water to a second basin with a lethal overdose of anaesthetic and left until dead. All lice remaining on these fish and lice that fell off in the anaesthetic bath were recorded. […]

[1] = test system: azamethiphos- and deltamethrin-resistant sea lice; experiment: In vitro bath exposure of isolated sea lice (Example 6); settings: 60 minutes exposure, registered approx. 20 h after end of exposure
Method: A trial was performed to ensure there was no cross-resistance between azamethiphos- and deltamethrin-resistant sea lice and neonicotinoids. Both pre-adult and adult stages (mobile stages) of both sexes were used, and they were equally distributed among groups. The sea lice were exposed to imidacloprid for 60 minutes, azamethiphos for 60 minutes and deltamethrin for 30 minutes in one litre baths at a range of concentrations (Tables 6, 7 and 8). The sea lice were transferred to clean aerated seawater after treatment. The temperature of the seawater during the experiment was 12° C., but during exposure the temperature raised to approx. 14° C. in regimes exposed for 60 min. (imidacloprid and azamethiphos) and to 13° C. for the regime exposed in 30 minutes (deltamethrin).
The numbers of live and immobilised (including killed) lice in each regime were registered approximately 20 h after end of exposure. Each louse was individually investigated.

Lepeophtheirus salmonis [2] = settings: for percentage of sea lice that dropped from treated fish at the end of the treatment period / knockdown times (mean±SEM) / percentage of lice for which their knockdown time equalled that of the exposure time: 20 ppm (nitenpyram 19 ppm); for percentage of sea lice that dropped from treated fish at the end of the treatment period: culled fish; for knockdown times (mean±SEM) / percentage of lice for which their knockdown time equalled that of the exposure time: * only one louse knocked down
Method: The fish were acclimatised until normal feeding behaviour resumed, up to a maximum of 10 days, prior to challenge. The fish were housed in 750 litre tanks at a stocking density of no greater than 35 kg/m3. Tanks were provided with a continuous supply of seawater at a flow rate greater than 5 L/min at a temperature of 4.8-10.4° C. The photoperiod was set at 12 hours light: 12 hours dark.
The fish were challenged in a static bath with copepodid instar of Lepeophtheirus salmonis with the appearance of egg strings freshly removed from adult female lice at a target titre of 1,250-1,700 copepodids per tank
Egg strings were harvested from gravid sea lice and incubated in upwelling chambers until nauplii eclosion. Nauplii were allowed to moult through to the copepodid instar (5 days at approx. 10° C.) and then the tank water was filtered through a 100 μm mesh before re-suspending the copepodids in 225 mL of sea water. A 25 mL sample was removed which was then split into 1-2 mL samples in a 24-well plate and the nauplii/copepodids were counted under a stereo microscope. When abundance was sufficient and a minimum of 80% were copepodids the fish were challenged for 8 hours under static flow in the dark.
Fish were randomly selected from tanks, lightly sedated in a 90 ppm MS222 solution sufficient only to induce loss of equilibrium before being sacrificed by a non-recoverable blow to the head. Between 4 and 33 fish were required per treatment.
Culled fish were then suspended in treatment tanks. Fish were suspended in the tank horizontally from cable ties (one through the opercular cavity, one around the peduncle) and wire attached to a wooden rod). One 20 L tank of test item at 20 ppm was used per day. Lice on culled fish were exposed for either 5, 10, 15, 30 or 60 minutes (negative control was only exposed for 60 minutes as this would cover the longest exposure period to be tested). The order within treatment was randomised.
(§1) Lice were monitored continuously for the duration of the exposure and behavioural observations noted, including detachment of lice from fish. At the end of exposure lice were either removed from the tank or fish, placed into small vented plastic screw-top containers (125 mL, LDPE, 25 mm hole drilled into lid and secured with 200 μm mesh), and transferred to a clean tank supplied with filtered sea water and held there for 24 h. Lice which had detached from fish were kept separate from those that had not detached.
On the day of exposure, 200 mg of the test ectoparasite treatments was added to 1 L of sea water. Only 192 mg of nitenpyram was supplied. The solution was mechanically stirred for 30 minutes, using a stirring plate and magnetic flea (VWR), at a speed sufficient to generate a strong vortex to ensure a homogenous solution. This was then transferred into an approx. 25 L clear plastic tank containing 9 L of sea water. The solution was then mixed for a further 10 minutes using a small pump (Fluval Sea CP1), which was then removed from the tank prior to addition of fish.
Each treatment requiring 1 to 4 fish per individual treatment per replicate and 2 to 13 fish per group per replicate. Treatments with negative control (sea water), dinotefuran, clothianidin and thiamethoxam were replicated twice, and for imidacloprid three times. There was only one replicate per treatment for nitenpyram. The mean number of lice used per individual treatment was 5.5 to 10, with the mean per group being 6.2-7.2 lice.

Lepeophtheirus salmonis [3] = settings: for percentage responsiveness of lice recovered from tank at treatment end at 24 hours post-treatment: lice knocked off fish
Method: as §1
24 h post-treatment lice were removed from the screw-top containers to check if they were alive and, if so, if they were responsive. Categories were defined as follows: alive—movement detected; responsive—alive and actively avoids stimulation in a coordinated manner; dead—no movement detected.
Lice defined as responsive could potentially re-attach to a fish. After assessment lice were transferred to 70% alcohol in case determination of instar and sex was required.

[4] = exposure 5 min, 20 ppm (nitenpyram 19 ppm), 24 h post-treatment
[5] = exposure 10 min, 20 ppm (nitenpyram 19 ppm), 24 h post-treatment
[6] = exposure 15 min, 20 ppm (nitenpyram 19 ppm), 24 h post-treatment
[7] = exposure 15 min, 20 ppm (nitenpyram 19 ppm)
[8] = exposure 30 min, 20 ppm (nitenpyram 19 ppm), 24 h post-treatment
[9] = exposure 30 min, 20 ppm (nitenpyram 19 ppm)
[10] = exposure 60 min, 20 ppm (nitenpyram 19 ppm), 24 h post-treatment
[11] = exposure 60 min, 20 ppm (nitenpyram 19 ppm)

| Structure (SMILES) | percentage of sea lice that dropped from treated fish at the end of the treatment period (Lepeophtheirus salmonis [2]; exposure 5 min) [%] | percentage of sea lice that dropped from treated fish at the end of the treatment period (Lepeophtheirus salmonis [2]; exposure 10 min) [%] | percentage of sea lice that dropped from treated fish at the end of the treatment period (Lepeophtheirus salmonis [2]; exposure 15 min) [%] | knockdown times (mean±SEM) (Lepeophtheirus salmonis [2]; exposure 15 min) | percentage of lice for which their knockdown time equalled that of the exposure time (Lepeophtheirus salmonis [2]; exposure 15 min) | percentage of sea lice that dropped from treated fish at the end of the treatment period (Lepeophtheirus salmonis [2]; exposure 30 min) [%] | knockdown times (mean±SEM) (Lepeophtheirus salmonis [2]; exposure 30 min) | percentage of lice for which their knockdown time equalled that of the exposure time (Lepeophtheirus salmonis [2]; exposure 30 min) | percentage of sea lice that dropped from treated fish at the end of the treatment period (Lepeophtheirus salmonis [2]; exposure 60 min) [%] | knockdown times (mean±SEM) (Lepeophtheirus salmonis [2]; exposure 60 min) | percentage of lice for which their knockdown time equalled that of the exposure time (Lepeophtheirus salmonis [2]; exposure 60 min) | percentage responsiveness for sea lice recovered from fish at the end of the treatment period (Lepeophtheirus salmonis [3]; [4]) [%] | percentage responsiveness for sea lice recovered from fish at the end of the treatment period (Lepeophtheirus salmonis [3]; [5]) [%] | percentage responsiveness for sea lice recovered from fish at the end of the treatment period (Lepeophtheirus salmonis [3]; [6]) [%] | percentage responsiveness of lice recovered from tank at treatment end at 24 hours post-treatment (Lepeophtheirus salmonis [3]; [7]) [%] | percentage responsiveness for sea lice recovered from fish at the end of the treatment period (Lepeophtheirus salmonis [3]; [8]) [%] | percentage responsiveness of lice recovered from tank at treatment end at 24 hours post-treatment (Lepeophtheirus salmonis [3]; [9]) [%] | percentage responsiveness for sea lice recovered from fish at the end of the treatment period (Lepeophtheirus salmonis [3]; [10]) [%] | percentage responsiveness of lice recovered from tank at treatment end at 24 hours post-treatment (Lepeophtheirus salmonis [3]; [11]) [%] | other results |
| --- | --- | --- | --- | --- | --- | --- | --- | --- | --- | --- | --- | --- | --- | --- | --- | --- | --- | --- | --- | --- |
| COP(=O)(OC)SCn1c(=O)oc2cc(Cl)cnc21 [azamethiphos] |  |  |  |  |  |  |  |  |  |  |  |  |  |  |  |  |  |  |  | % Removal (Salmon lice): 3.0^33% and 3.8^52%; % effect ([1]; 5 ppm): 0%; Immobilised ([1]; 5 ppm): 0; Live ([1]; 5 ppm): 10; % effect ([1]; 10 ppm): 10%; Immobilised ([1]; 10 ppm): 1; Live ([1]; 10 ppm): 9; % effect ([1]; 15 ppm): 0%; Immobilised ([1]; 15 ppm): 0; Live ([1]; 15 ppm): 10; % effect ([1]; 20 ppm): 10% and 20%; Immobilised ([1]; 20 ppm): 1 and 2; Live ([1]; 20 ppm): 9 and 8; Live ([1]; 30 ppm): 9 and 6 |
| CN/C(=N\[N+](=O)[O-])NCc1cnc(Cl)s1 [clothianidin] | 0 | 0 | 9.1 | 900* seconds | 100* % | 69.2 | 1706 ± 71 s | 77.8% | 54.5 | 2289 ± 424 s | 33.3% | 100 | 93 | 90 | 0 | 75 | 44 | 100 | 33 |  |
| CN/C(=N/CC1CCOC1)N[N+](=O)[O-] (stereo not shown) [dinotefuran] | 0 | 0 | 0 | 900* seconds | 100* % | 7.7 | 1800* seconds | 100* % | 53.3 | 3109 ± 224 s | 25% |  |  |  | 100 |  | 0 |  | 71 | percentage responsiveness for sea lice recovered from fish at the end of the treatment period (Lepeophtheirus salmonis [3]): 88% and 73% and 100% and 69% and 83% |
| CCN(Cc1ccc(Cl)nc1)/C(=C/[N+](=O)[O-])NC [nitenpyram] | 0 | 0 | 16.7 | 900* seconds | 100* % | 0 |  |  | 14.3 | 3600* seconds | 100* % | 100 | 100 | 100 | 0 | 100 |  | 100 | 0 | Responsiveness of lice still on fish at end of exposure (Lepeophtheirus salmonis [3]; all exposure durations (5-60 min), 19 ppm): unaffected at all exposure durations |
| CN1COCN(Cc2cnc(Cl)s2)/C1=N\[N+](=O)[O-] [thiamethoxam] | 0 | 0 | 0 |  |  | 0 |  |  | 0 |  |  | 100 | 100 | 100 |  | 100 |  | 92 |  | Knockdown effect (Lepeophtheirus salmonis [2]; 20 ppm, exposure 5 to 60 minutes): No knockdown |
